The source of these data is ChEMBL document CHEMBL5247656, “Discovery of a Potent, Cooperative, and Selective SOS1 PROTAC ZZ151 with In Vivo Antitumor Efficacy in KRAS-Mutant Cancers” (J Med Chem, 2023).

Activity calls are given as the source filed them. No cut-off for these calls is given here.

For series [1], the target named is T1, Son of sevenless homolog 1 (Homo sapiens, UniProt Q07889).
T1 sequence (Q07889 whole entry): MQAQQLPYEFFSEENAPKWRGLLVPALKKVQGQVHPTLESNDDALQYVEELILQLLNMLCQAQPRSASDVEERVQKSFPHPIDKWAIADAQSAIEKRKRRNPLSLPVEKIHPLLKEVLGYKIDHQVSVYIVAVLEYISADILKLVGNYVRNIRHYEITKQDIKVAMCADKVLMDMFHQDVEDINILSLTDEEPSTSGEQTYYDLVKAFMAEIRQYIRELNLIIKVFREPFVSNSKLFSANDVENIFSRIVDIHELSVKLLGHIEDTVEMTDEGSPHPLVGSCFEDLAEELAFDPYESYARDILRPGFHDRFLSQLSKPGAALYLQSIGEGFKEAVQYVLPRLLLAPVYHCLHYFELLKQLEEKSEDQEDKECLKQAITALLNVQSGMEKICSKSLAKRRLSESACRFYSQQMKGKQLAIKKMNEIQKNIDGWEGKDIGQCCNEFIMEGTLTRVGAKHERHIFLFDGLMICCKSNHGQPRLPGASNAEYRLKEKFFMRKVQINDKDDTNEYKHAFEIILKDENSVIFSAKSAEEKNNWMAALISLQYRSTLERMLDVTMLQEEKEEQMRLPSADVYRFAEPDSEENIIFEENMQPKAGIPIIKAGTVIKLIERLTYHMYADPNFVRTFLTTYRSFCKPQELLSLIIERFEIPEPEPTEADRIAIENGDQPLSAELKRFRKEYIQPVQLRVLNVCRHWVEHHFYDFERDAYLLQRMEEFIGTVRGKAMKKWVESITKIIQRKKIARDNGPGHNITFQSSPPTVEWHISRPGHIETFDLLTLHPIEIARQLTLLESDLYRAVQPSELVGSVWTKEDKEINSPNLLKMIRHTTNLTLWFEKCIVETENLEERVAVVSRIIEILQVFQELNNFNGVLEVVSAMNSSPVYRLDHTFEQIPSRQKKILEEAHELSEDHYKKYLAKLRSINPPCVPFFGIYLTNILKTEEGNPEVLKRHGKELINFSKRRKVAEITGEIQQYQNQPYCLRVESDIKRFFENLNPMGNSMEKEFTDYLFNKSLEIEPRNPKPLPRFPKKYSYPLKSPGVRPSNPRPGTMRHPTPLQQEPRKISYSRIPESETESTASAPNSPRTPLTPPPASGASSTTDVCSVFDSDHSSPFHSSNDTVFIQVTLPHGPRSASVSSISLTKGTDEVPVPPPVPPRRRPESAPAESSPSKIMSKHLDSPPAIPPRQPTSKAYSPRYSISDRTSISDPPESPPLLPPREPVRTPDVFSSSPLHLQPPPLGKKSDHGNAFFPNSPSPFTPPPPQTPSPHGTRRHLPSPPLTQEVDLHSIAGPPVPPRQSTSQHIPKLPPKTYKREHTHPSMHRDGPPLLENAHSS
Briefly: Binding affinity to GST-tagged human SOS1 (564 to 1049 residues) expressed in Escherichia coli BL21 (DE3) cells assessed as binary complex formation by measuring dissociation constant incubated for 15 mins by fluorescence polarization-based displacement assay.

For a further series, the system named is A549. The experiment in a line: Antiproliferative activity against human A549 cells harboring KRAS G12S mutant assessed as inhibition of cell proliferation incubated for 7 days by CellTiterGlo-3D proliferation assay. Format: functional, cell-based. The following applies: A549, 168 h. (In ATP-based viability assays light output follows the ATP content of the culture.)

Another series concerns PANC-1. Briefly: Antiproliferative activity against human PANC-1 cells harboring KRAS G12D mutant assessed as inhibition of cell proliferation incubated for 7 days by CellTiterGlo-3D proliferation assay. It is filed as functional, cell-based. The following applies: PANC-1, 168 h.
Series [2] concerns SW-620. The experiment in a line: Antiproliferative activity against human SW620 cells harboring KRAS G12V mutant assessed as inhibition of cell proliferation incubated for 7 days by CellTiterGlo-3D proliferation assay. Format: functional, cell-based. The following applies: SW-620, 168 h.
The test system of series [3] is ASPC1. The experiment in a line: Antiproliferative activity against human ASPC1 cells harboring KRAS G12D mutant assessed as inhibition of cell proliferation incubated for 7 days by CellTiterGlo-3D proliferation assay. It is filed as functional, cell-based. The following applies: ASPC1, 168 h.
The subject of another series is MIA PaCa-2. Briefly: Antiproliferative activity against human MIA PaCa-2 cells harboring KRAS G12C mutant assessed as inhibition of cell proliferation incubated for 7 days by CellTiterGlo-3D proliferation assay. Format: functional, cell-based. The following applies: MIA PaCa-2, 168 h.
The target of series [4] is von Hippel-Lindau disease tumor suppressor/Son of sevenless homolog 1/Elongin-B/Elongin-C (Homo sapiens) (UniProt Q07889+P40337+Q15370+Q15369). The experiment in a line: Binding affinity to GST tagged human SOS1(564 to 1049 residues)-6his tagged human VHL (54 to 213 residues)-human ElonginC (17 to 112 residues)-human ElonginB (1 to 104 residues) expressed in Escherichia coli BL21 (DE3) cells assessed as ternary complex formation by measuring maximal HTRF signals incubated for 15 mins by HTRF analysis. Background: TR-FRET usually uses a lanthanide donor and a delayed reading to cut background.

For series [5], the target named is T2, Son of sevenless homolog 1 (Homo sapiens) (UniProt Q07889).
T2 sequence (whole entry): T1 sequence (Q07889 whole entry)
Briefly: Induction of SOS1 degradation in human NCI-H358 cells at 0.1 to 1 uM incubated for 24 hrs by immunoblot analysis. It is filed as cell-based. The following applies: dose 0.1-1 µM. (In general: Immunoblotting shows a protein as a band on a membrane.)

The next series deals with NCI-H358. The experiment in a line: Antiproliferative activity against human NCI-H358 cells harboring KRAS G12C mutant assessed as inhibition of cell proliferation incubated for 7 days by CellTiterGlo-3D proliferation assay. The following applies: NCI-H358, 168 h. It is filed as functional, cell-based.
Series [6] deals with T1, Son of sevenless homolog 1. The experiment in a line: Binding affinity to GST-tagged human SOS1 (564 to 1049 residues) expressed in Escherichia coli BL21 (DE3) cells assessed as ternary complex formation by measuring dissociation constant incubated for 15 mins in the presence of 6His tagged human VCB by fluorescence polarization-based displacement assay.
Another series concerns LoVo. Briefly: Antiproliferative activity against human LoVo cells harboring KRAS G13D mutant assessed as inhibition of cell proliferation incubated for 7 days by CellTiterGlo-3D proliferation assay. It is filed as functional, cell-based. The following applies: 168 h.
Series [7] concerns the target T3, von Hippel-Lindau disease tumor suppressor/Son of sevenless homolog 1 (Homo sapiens) (UniProt Q07889+P40337). Briefly: PROTAC activity at VHL/SOS1 in human ASPC1 cells harboring KRAS G12D mutant assessed as induction of SOS1 degradation upto 10 uM incubated for 24 hrs by immunoblotting analysis. It is filed as cell-based.
Series [8] deals with T3, von Hippel-Lindau disease tumor suppressor/Son of sevenless homolog 1 (Homo sapiens). Briefly: PROTAC activity at VHL/SOS1 in human NCI-H358 cells harboring KRAS G12C mutant assessed as induction of SOS1 degradation upto 10 uM incubated for 24 hrs by immunoblotting analysis. It is filed as cell-based.
Series [9] deals with ASPC1. Briefly: In vivo Inhibition of ERK in human ASPC1 cells harboring KRAS G12D mutant xenografted BALB/c nude mouse assessed as inhibition of ERK phosphorylation in tumor at 50 mg/kg, ip administered twice daily for 3 weeks by immunohistochemical analysis. Format: functional, organism-based.
Series [10] concerns ASPC1. Briefly: In vivo Inhibition of ERK in human ASPC1 cells harboring KRAS G12D mutant xenografted BALB/c nude mouse assessed as inhibition of ERK phosphorylation at 50 mg/kg, ip administered twice daily for 3 weeks by Immunoblot analysis. Format: functional, organism-based.
Series [11] can be described thus: Toxicity in BALB/c nude mouse xenografted with human ASPC1 cells harboring KRAS G12D mutant assessed as body weight loss at 50 mg/kg, ip administered twice daily for 3 weeks. Format: organism-based. The following applies: in vivo, 504 h.
Series [12] is described as follows: Toxicity in BALB/c nude mouse xenografted with human SW620 cells harboring KRAS G12V mutant assessed as body weight loss at 50 mg/kg, ip administered twice daily for 2 weeks. Format: organism-based, SW-620. The following applies: in vivo, 336 h.
In series [13] the test system is SW-620. The experiment in a line: Antitumor activity against human SW620 cells harboring KRAS G12V mutant xenografted in BALB/c nude mouse assessed as tumor growth inhibition at 50 mg/kg, ip administered twice daily for 2 weeks relative to control. Format: functional. The following applies: SW-620, 336 h, read-out: TGI.
The test system of series [14] is ASPC1. Briefly: Antitumor activity against human ASPC1 cells harboring KRAS G12D mutant xenografted in BALB/c nude mouse assessed as tumor growth inhibition at 50 mg/kg, ip administered twice daily for 3 weeks relative to control. It is filed as functional. The following applies: ASPC1, 504 h, read-out: TGI.
The subject of series [15] is SW-620. The experiment in a line: In vivo Inhibition of ERK in human SW620 cells harboring KRAS G12V mutant xenografted BALB/c nude mouse assessed as inhibition of ERK phosphorylation in tumor at 50 mg/kg, ip administered twice daily for 2 weeks by immunohistochemistry analysis. It is filed as functional, organism-based.
Series [16] concerns SW-620. Briefly: In vivo Inhibition of ERK in human SW620 cells harboring KRAS G12V mutant xenografted BALB/c nude mouse assessed as inhibition of ERK phosphorylation at 50 mg/kg, ip administered twice daily for 2 weeks by Immunoblot analysis. It is filed as functional, organism-based.

As to `COc1cc2nc(C)nc(NC(C)c3cc(N)cc(C(F)(F)F)c3)c2cc1C1CCN(C(C)=O)CC1` (stereo not given), the Kd was 26.9 nM in series [1] and 26.5 nM in series [6]. Moreover, the IC50 was found to be 134 nM in the series on A549; 23.1 nM in the series with PANC-1; 36.3 nM with SW-620 [2]; 36.7 nM in the series on ASPC1 [3]; 48.5 nM in the series on MIA PaCa-2; 74.6 nM in the series with NCI-H358. For the same compound, in the series with LoVo, the IC50 is 79.8 nM. Besides, the result in [4] and in series [5] was inactive.
As to `COc1cc2nc(C)nc(N[C@H](C)c3cc(N)cc(C(F)(F)F)c3)c2cc1C1CCN(C(=O)CCCCCC(=O)N[C@H](C(=O)N2C[C@@H](O)C[C@H]2C(=O)N[C@@H](C)c2ccc(-c3scnc3C)cc2)C(C)(C)C)CC1`, the IC50 amounted to 731 nM in the series on A549; 188 nM with PANC-1; 303 nM in the series on SW-620 [2]; 302 nM with ASPC1 [3]; 957 nM with MIA PaCa-2; 457 nM in the series with NCI-H358. The concentration for half-maximal inhibition (IC50) in the series on LoVo is more than 1000 nM. The result in series [7] and in [8] was inactive.
Regarding `COc1cc2nc(C)nc(N[C@H](C)c3cc(N)cc(C(F)(F)F)c3)c2cc1O[C@H]1CCOC1`, the inhibition entry with ASPC1 [9], with ASPC1 [10], in the series on SW-620 [15] and in the series with SW-620 [16] was “Active” each time. Besides, the 50% inhibitory concentration (IC50) with A549 was determined as 263 nM; in the series on PANC-1 it was 17.8 nM; in the series on SW-620 [2] it was 30.1 nM; with ASPC1 [3], 64.4 nM; in the series with MIA PaCa-2, 24.8 nM; in the series on NCI-H358 it was 16.5 nM. Further, the IC50 with LoVo turned out to be 142 nM. The Activity entry in [11] and in [12] was “Non-Toxic” in each case. The inhibition in vivo at 50 mg/kg in the series with SW-620 [13] worked out at 61.4%; in the series with ASPC1 [14], 43.6%.

Usually Kd stands for the free concentration of one partner at which half of the binding sites on the other are occupied at equilibrium, for simple one-to-one binding. One may read the IC50 as the concentration at which inhibition is half-maximal.
